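Where inhibition never reached the appropriate level, the endpoint shown equals the highest concentration tested. Otherwise, values were interpolated linearly from a five-concentration, 48-hour dose response in 96-well plates. GI50 marks 50% less growth.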 Calls of active or inactive are those of the source. Cut-off read from the data, not from the text of the source: active = GI50 up to about 1.1 µM and inactive = higher.
Key:
Assay in all cases: growth of human tumour cells (NCI), 48 h
LXFL 529 = system: LXFL 529
XF498 = system: XF498
HOP-18 = system: HOP-18
DMS-273 = system: DMS-273
RXF 631 = system: RXF 631
KM-20L2 = system: KM-20L2
M19-MEL = system: M19-MEL
DMS-114 = system: DMS-114

| SMILES | GI50 (LXFL 529) | GI50 (XF498) | GI50 (HOP-18) | GI50 (DMS-273) | GI50 (RXF 631) | GI50 (KM-20L2) | GI50 (M19-MEL) | GI50 (DMS-114) |
| --- | --- | --- | --- | --- | --- | --- | --- | --- |
| COc1cc2c(c(OC)c1OC)-c1ccc(SC)c(=O)cc1[C@@H](NCc1ccc(F)cc1)CC2 | < 0.0075 µM (active) | < 0.0075 µM (active) | 9.1 µM (inactive) | < 0.0075 µM (active) | < 0.0075 µM (active) | < 0.0075 µM (active) | – | – |
| O=C1C=C(O)C(=Cc2c(O)cc(O)cc2O)C(O)=C1 | > 100 µM (inactive) | > 100 µM (inactive) | > 100 µM (inactive) | > 100 µM (inactive) | > 100 µM (inactive) | > 100 µM (inactive) | > 100 µM (inactive) | > 100 µM (inactive) |
| Cc1ccc(C2=NO[C@@H]3C(=O)N(c4ccc(Cc5ccc(N6C(=O)[C@H]7C(c8ccc(C)cc8)=NO[C@H]7C6=O)cc5)cc4)C(=O)[C@H]23)cc1 | > 100 µM (inactive) | > 100 µM (inactive) | > 100 µM (inactive) | > 100 µM (inactive) | > 100 µM (inactive) | > 100 µM (inactive) | > 100 µM (inactive) | > 100 µM (inactive) |
| Cc1cccc(C)c1N1C(=O)C(=O)C(c2nc3ccccc3s2)/C(=N\N)C1=O (centres undefined) | 40.8 µM (inactive) | – | 49.7 µM (inactive) | > 100 µM (inactive) | > 100 µM (inactive) | > 100 µM (inactive) | > 100 µM (inactive) | 60.8 µM (inactive) |
| O=C(CCC(=O)Nc1ccc(Cl)cc1)CC(=O)c1ccc2ccccc2c1 | > 100 µM (inactive) | – | > 100 µM (inactive) | > 100 µM (inactive) | > 100 µM (inactive) | > 100 µM (inactive) | > 100 µM (inactive) | > 100 µM (inactive) |
| COc1ccc(C(=O)O/N=C2\CCCC\C2=C/c2ccccc2)cc1 | > 100 µM (inactive) | 35.5 µM (inactive) | 51.5 µM (inactive) | > 100 µM (inactive) | > 100 µM (inactive) | > 100 µM (inactive) | > 100 µM (inactive) | 80.7 µM (inactive) |
